# Experimental data reported in patent publication US20060069132A1, “Azolecarboxamide herbicides” (priority 2004, published 2006).
# Tests used:
# [1] = tested on: common (oilseed) sunflower; test: Test C pre-/postemergence herbicide test; type: in vivo, Helianthus annuus; conditions: for Plant response rating, Sunflower / Plant response rating (0 = no effect, 100 = complete control), Sunflower: preemergence
# How it was run: (§1)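 Visual ratings on a 0–100 scale (100 = complete control) made versus untreated controls after 12 to 14 greenhouse days. Test chemicals, formulated in surfactant-containing non-phytotoxic solvent, applied preemergence to planted seeds or postemergence to 1- to 4-leaf plants (2 to 18 cm).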
# eastern black nightshade = test: Test C pre-/postemergence herbicide test; type: in vivo, Solanum ptycanthum; conditions: for Plant response rating, Nightshade / Plant response rating (0 = no effect, 100 = complete control), Nightshade: preemergence
# How it was run: as §1
# bermudagrass = test: Test C pre-/postemergence herbicide test; type: in vivo, Cynodon dactylon; conditions: for Bermudagrass plant response rating: Preemergence
# How it was run: as §1
# rice = test: Test C flooded paddy test; type: in vivo, Oryza sativa; conditions: for Plant response rating, Rice: 500 g ai/ha, visual rating after 12 to 14 days
# How it was run: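 Injury scored visually against controls on a 0 (no effect) to 100 (complete control) scale, 12 to 14 days after treatment in greenhouse. Flooded paddy plants treated at 2-leaf stage; postemergence plants at 1- to 4-leaf stage, 2 to 18 cm tall.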
# morningglory = test: Test A pre-/postemergence herbicide test; type: in vivo, Ipomoea spp.; conditions: for Plant response rating, Morningglory: Postemergence; for Morningglory plant response rating: Preemergence
# How it was run: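 Visual injury scores on a 0–100 scale (100 = complete control) taken about ten days post-treatment in greenhouse against untreated controls; dash means no result. Treatments: preemergence soil spray and postemergence spray to runoff on one- to two-leaf plants 2 to 10 cm tall, surfactant-containing formulation.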
# [2] = 500 g ai/ha, scale 0 to 100 (0 no effect, 100 complete control), visual, 12 to 14 days
# [3] = 62 g ai/ha, preemergence, scale 0 to 100, 0 no effect, 100 complete control
# [4] = 250 g ai/ha, scale 0-100, preemergence
# [5] = 500 g ai/ha, scale 0 to 100 (0 no effect, 100 complete control), visual, 12 to 14 days, preemergence
# [6] = 125 g ai/ha, scale 0 to 100 (0 no effect, 100 complete control)
# [7] = 250 g ai/ha, scale of 0 to 100, 0 is no effect, 100 is complete control
# [8] = scale 0 to 100 (0 no effect, 100 complete control)
# [9] = 125 g ai/ha, scale 0 (no effect) to 100 (complete control), visual, 12 to 14 days
# [10] = 125 g ai/ha, scale 0 (no effect) to 100 (complete control), visual, 12 to 14 days, preemergence
# [11] = 500 g ai/ha, scale 0 to 100, 0 no effect, 100 complete control
# [12] = 250 g ai/ha, scale 0 to 100 (0 no effect, 100 complete control), visual, 12 to 14 days
# [13] = Preemergence, 500 g ai/ha, scale 0 to 100, 0 no effect, 100 complete control
# [14] = 62 g ai/ha, scale 0 to 100 (0 no effect, 100 complete control)
# [15] = 2000 g ai/ha, 0 to 100 scale, 0 no effect, 100 complete control
SMILES,"Plant response rating, Sunflower ([1]; 62 g ai/ha, scale 0 to 100)","Plant response rating, Sunflower [1, 2]","Plant response rating, Nightshade (eastern black nightshade; 62 g ai/ha, scale 0 to 100)","Plant response rating, Nightshade (eastern black nightshade; [2])","Plant response rating, Bermudagrass (bermudagrass; [3])","Plant response rating, Bermudagrass (bermudagrass; [4])","Rice plant response rating (rice; 62 g ai/ha, scale 0 to 100)",Rice plant response rating (rice; [6]),Rice plant response rating (rice; [7]),"Plant response rating, Rice (rice; [8])","Plant response rating, Sunflower ([1]; 250 g ai/ha, scale 0-100)","Plant response rating, Nightshade (eastern black nightshade; [9])","Plant response rating, Nightshade (eastern black nightshade; 250 g ai/ha, scale 0-100)","Plant response rating, Bermudagrass (bermudagrass; [10])",Bermudagrass plant response rating (bermudagrass; [11]),other results
CCc1nn(C(C)C)nc1C(=O)Nc1cccc(C(=S)N(C)C)c1 [Compound 409],0,55,45,95,40,85,20,40,50,60,–,–,–,–,–,"Plant response rating (0 = no effect, 100 = complete control), Sunflower ([1]; 125 g ai/ha): 5; Plant response rating (0 = no effect, 100 = complete control), Nightshade (eastern black nightshade; 125 g ai/ha): 85; Plant response rating (0 = no effect, 100 = complete control), Bermudagrass (bermudagrass; 125 g ai/ha, preemergence): 50; Plant response rating, Bermudagrass (bermudagrass; [5]): 85"
CCN1N=C(C(C)(C)C)CC1C(=O)Nc1cc(C(=O)N2CC=CC2)ccc1F (racemic) [Compound 310],0,0,30,100,50,100,35,60,70,80,0,35,100,85,100,–
CCn1nc(C2(C)CC2)cc1C(=O)Nc1cc(C(=O)N2CC=CC2)ccc1F [Compound 301],0,0,90,100,80,90,50,55,75,85,0,95,100,90,95,–
C=CCn1nc(C(C)(C)C)cc1C(=O)Nc1cccc(C(=O)NCC)c1 [Compound 56],–,–,–,–,–,–,–,–,25,35,–,95,–,90,95,"Plant response rating (0 = no effect, 100 = complete control), Sunflower ([1]; 62 g ai/ha): 0; Plant response rating, Sunflower [1, 9]: 0; Plant response rating, Sunflower [1, 12]: 0; Sunflower plant response rating [1, 13]: 0; Plant response rating (0 = no effect, 100 = complete control), Nightshade (eastern black nightshade; 62 g ai/ha): 90; Plant response rating, Nightshade (eastern black nightshade; [12]): 95; Nightshade plant response rating (eastern black nightshade; [13]): 95; Plant response rating (0 = no effect, 100 = complete control), Bermudagrass (bermudagrass; 62 g ai/ha, preemergence): 85; Plant response rating, Bermudagrass (bermudagrass; 250 g ai/ha, scale 0 to 100 (0 no effect, 100 complete control), visual, 12 to 14 days, preemergence): 95; Rice plant response rating (rice; [14]): 0; Rice plant response rating (rice; 125 g ai/ha, scale of 0 to 100, 0 is no effect, 100 is complete control): 15"
CCn1nc(C(C)(C)C)cc1C(=O)Nc1ccc(OC)c(OC)c1 [Compound 298],0,0,100,100,50,80,45,60,65,75,0,100,100,55,95,–
CCNC(=O)c1cccc(NC(=O)c2cc(C(C)(C)C)nn2CCF)c1 [Compound 35],–,–,–,–,–,–,–,–,–,–,–,90,–,100,–,"Plant response rating, Sunflower ([1]; 31 g ai/ha, scale 0 to 100): 10; Plant response rating (0 = no effect, 100 = complete control), Sunflower ([1]; 62 g ai/ha): 10; Plant response rating, Sunflower [1, 9]: 10; Plant response rating, Nightshade (eastern black nightshade; 31 g ai/ha, scale 0 to 100): 70; Plant response rating, Morningglory (morningglory; 500 g ai/ha, 0 to 100 scale, 0 no effect, 100 complete control): 10; Plant response rating, Morningglory (morningglory; [15]): 10; Morningglory plant response rating (morningglory; 500 g ai/ha, visual rating, 0 to 100 scale (0 no effect, 100 complete control)): 25; Morningglory plant response rating (morningglory; [15]): 85; Plant response rating, Bermudagrass (bermudagrass; 16 g ai/ha, scale 0 to 100, 0 no effect, 100 complete control, last section of Table C (species set of preemergence test)): 0; Plant response rating, Bermudagrass (bermudagrass; 31 g ai/ha, preemergence, scale 0 to 100): 30; Plant response rating (0 = no effect, 100 = complete control), Bermudagrass (bermudagrass; 62 g ai/ha, preemergence): 90; Plant response rating, Bermudagrass (bermudagrass; Postemergence, 125 g ai/ha, scale 0 to 100, 0 no effect, 100 complete control): 20; Plant response rating, Bermudagrass (bermudagrass; postemergence, 16 g ai/ha, scale 0 to 100): 0; Plant response rating, Bermudagrass (bermudagrass; postemergence, 62 g ai/ha, scale 0 to 100): 0"
C=CCNC(=O)c1cccc(NC(=O)c2nn(C(C)C)nc2CC)c1 [Compound 382],0,20,95,100,60,85,20,55,70,75,0,–,95,–,–,"Plant response rating (0 = no effect, 100 = complete control), Bermudagrass (bermudagrass; 125 g ai/ha, preemergence): 80; Plant response rating, Bermudagrass (bermudagrass; [5]): 90"
CCn1nc(C(C)(C)C)cc1C(=O)Nc1cc(C(=O)N(C)OC)ccc1F [Compound 244],0,20,100,100,95,100,–,70,75,75,15,100,100,100,100,Rice plant response rating (rice; [14]): 40
